The target in experiment [1] is T1, human Adenosine A2a receptor (Homo sapiens, UniProt P29274).
T1 construct: expressed in transfected cells; host or cells: CHO cell membranes
Put plainly: Adenosine receptor TR-FRET binding assay (CA200645 displacement), A2a. Particulars: 100 nM CA200645, CHO cell membranes, 2 hours at room temperature. (In general: TR-FRET usually uses a lanthanide donor and a delayed reading to cut background.)

Experiment [2] has as its target T2, human Adenosine A2b receptor (Homo sapiens, UniProt P29275).
T2 construct: expressed in transfected cells; host or cells: CHO cell membranes
T2 sequence (P29275 1-332): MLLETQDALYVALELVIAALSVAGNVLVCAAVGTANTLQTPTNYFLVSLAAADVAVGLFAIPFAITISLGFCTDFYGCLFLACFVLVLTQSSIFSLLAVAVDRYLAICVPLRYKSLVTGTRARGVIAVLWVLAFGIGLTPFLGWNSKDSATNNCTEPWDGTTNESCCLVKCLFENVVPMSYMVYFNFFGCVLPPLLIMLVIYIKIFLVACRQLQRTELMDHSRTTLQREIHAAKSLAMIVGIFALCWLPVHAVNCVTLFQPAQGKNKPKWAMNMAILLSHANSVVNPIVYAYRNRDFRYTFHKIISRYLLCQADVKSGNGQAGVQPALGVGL
The experiment is described as follows: Adenosine receptor TR-FRET binding assay (CA200645 displacement), A2b. Particulars: 30 nM CA200645, CHO cell membranes, 2 hours at room temperature.

The subject of the next experiment is human PBMCs. The experiment is described as follows: CD3/CD28 stimulated IL-2 release NECA reversal assay in human PBMCs.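 Further: dose-response as % inhibition where 100% equals no-NECA control wells with CD3/CD28.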 It is filed as cell-based. As to conditions: PBMC, CD3/CD28 antibody stimulated, 1 uM NECA, 24 hours, IL-2 in culture supernatant. The protocol: Blood is drawn from healthy volunteers using sodium citrate as the anticoagulant (0.3% final concentration). After centrifugation of the blood over Histopaque-1077, PBMCs are collected from the Histopaque/plasma interface and washed twice in PBS (300 g for 10 mins at room temp). Cells are plated at 50,000 cells/well in 150 μl RPMI/10% FCS in 96-well cell culture plates that have been precoated with 1 ug/ml CD3 antibody. 50 μl diluted compound mix is added to the cells, to obtain final concentrations of 1 ug/ml CD28 antibody, 1 uM NECA and 0.003-10 μM adenosine receptor antagonist. Assay plates are incubated for 24 hours at 37° C. in a humidified incubator. Culture supernatant is tested for IL-2 levels using the human IL-2 Tissue Culture Kit (Meso Scale Discovery).

Experiment [3] has as its target T3, human Adenosine A1 receptor (Homo sapiens, UniProt P30542).
T3 sequence (P30542 1-326): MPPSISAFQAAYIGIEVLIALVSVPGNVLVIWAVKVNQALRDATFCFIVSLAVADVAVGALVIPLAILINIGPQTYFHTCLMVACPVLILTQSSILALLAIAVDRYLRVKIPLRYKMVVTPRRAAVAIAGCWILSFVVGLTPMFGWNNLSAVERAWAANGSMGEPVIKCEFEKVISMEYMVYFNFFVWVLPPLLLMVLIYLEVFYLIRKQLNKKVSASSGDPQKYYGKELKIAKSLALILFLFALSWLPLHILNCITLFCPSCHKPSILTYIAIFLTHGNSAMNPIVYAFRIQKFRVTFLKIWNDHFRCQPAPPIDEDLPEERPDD
The experiment is described as follows: Adenosine receptor TR-FRET binding assay (CA200645 displacement), A1.

Experiment [4] has as its target T4, human Adenosine A3 receptor (Homo sapiens, UniProt P0DMS8).
T4 sequence (P0DMS8 1-318): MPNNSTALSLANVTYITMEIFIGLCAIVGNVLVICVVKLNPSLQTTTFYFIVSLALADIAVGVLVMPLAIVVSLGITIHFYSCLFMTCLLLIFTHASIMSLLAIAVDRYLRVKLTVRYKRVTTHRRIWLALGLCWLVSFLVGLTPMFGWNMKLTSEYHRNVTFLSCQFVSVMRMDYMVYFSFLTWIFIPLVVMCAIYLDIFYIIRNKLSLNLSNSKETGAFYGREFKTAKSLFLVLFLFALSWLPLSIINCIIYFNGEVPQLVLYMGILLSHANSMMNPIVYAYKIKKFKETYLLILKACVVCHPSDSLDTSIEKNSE
Put plainly: Adenosine receptor TR-FRET binding assay (CA200645 displacement), A3.

Structures are written as SMILES.

T1 sequence (P29274 whole entry): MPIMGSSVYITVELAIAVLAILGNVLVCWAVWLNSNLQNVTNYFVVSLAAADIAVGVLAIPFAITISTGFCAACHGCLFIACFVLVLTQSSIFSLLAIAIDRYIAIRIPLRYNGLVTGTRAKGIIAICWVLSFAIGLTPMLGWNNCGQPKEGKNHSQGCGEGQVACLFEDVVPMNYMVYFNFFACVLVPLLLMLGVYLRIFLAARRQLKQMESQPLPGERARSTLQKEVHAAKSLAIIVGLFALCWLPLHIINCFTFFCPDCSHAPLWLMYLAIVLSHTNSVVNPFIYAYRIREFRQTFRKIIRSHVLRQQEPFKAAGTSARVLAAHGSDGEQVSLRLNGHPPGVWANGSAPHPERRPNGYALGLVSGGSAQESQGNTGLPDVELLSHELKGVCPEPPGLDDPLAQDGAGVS

Take `Cc1cc(-c2c(-c3cccc(C#N)c3)nn3ccc(C(=O)NC4COC4)nc23)cc(Cl)n1` [Example 5.5]: the Ki (commonly the dissociation constant of the complex between target and ligand, obtained from inhibition or displacement) in experiment [1] was 1.7 nM; in experiment [2], 55 nM; in experiment [3], 200 nM; in experiment [4], over 1000 nM. The IC50 (commonly the concentration at which inhibition is half-maximal) in the experiment on human PBMCs turned out to be 21 nM.

`N#Cc1c(-c2ccccc2F)nn2ccc(NCc3ccccc3)nc12` [Example 35, 5-(Benzylamino)-2-(2-fluorophenyl)pyrazolo[1,5-a]pyrimidine-3-carbonitrile]: the results for the Ki in experiment [1], in experiment [2] and in experiment [3] were 4.5 nM, 122 nM and 4 nM, respectively. Also, in the experiment with human PBMCs, the IC50 was 408 nM.

In the case of `CC(C)(C)OC(=O)N1CCO[C@@H](CNc2ccn3nc(-c4ccco4)c(C#N)c3n2)C1` [Example 37.1], the Ki in experiment [1] was determined as 13.3 nM; in experiment [2] it was 46 nM; in experiment [3] it was 45 nM; in experiment [4] it was 2090 nM. Moreover, in the experiment on human PBMCs, the IC50 turned out to be 477 nM.

Take `Brc1c(-c2ccco2)nn2ccc(NCc3ccccc3)nc12` [Example 44, N-Benzyl-3-bromo-2-(2-furyl)pyrazolo[1,5-a]pyrimidin-5-amine]: the Ki in experiment [1] is 3.4 nM; in experiment [2] it was 2850 nM; in experiment [3], 141 nM; in experiment [4], 25 nM. In addition, in the experiment on human PBMCs, the IC50 is 501 nM.

On to `N#Cc1c(-c2ccco2)nn2ccc(NCc3ccccc3)nc12` [Example 45, 5-(Benzylamino)-2-(2-furyl)pyrazolo[1,5-a]pyrimidine-3-carbonitrile], for which the Ki in experiment [1] was determined as 0.5 nM; in experiment [2], 74 nM; in experiment [3], 6 nM. For the same compound, the IC50 with human PBMCs was 107 nM.

Turning to `NC(=O)c1c(-c2ccco2)nn2ccc(NCc3ccccc3)nc12` [Example 46, 5-(Benzylamino)-2-(2-furyl)pyrazolo[1,5-a]pyrimidine-3-carboxamide], the Ki in experiment [1] was 2.7 nM; in experiment [2], 257 nM; in experiment [3], 146 nM; in experiment [4], 1270 nM. Besides, the IC50 in the experiment on human PBMCs amounted to 60 nM.

Regarding `Cn1cc(-c2c(-c3ccco3)nn3ccc(NCc4ccccc4)nc23)cn1` [Example 53, N-benzyl-2-(2-furyl)-3-(1-methylpyrazol-4-yl)pyrazolo[1,5-a]pyrimidin-5-amine], the figures for the Ki in experiment [1], in experiment [3] and in experiment [4] were 27.7 nM, 214 nM and 618 nM, respectively. Also, the IC50 with human PBMCs is 128 nM.

In the case of `N#Cc1cccc(-c2nn3ccc(NCc4ccccc4)nc3c2C#N)c1` [Example 58, 5-(Benzylamino)-2-(3-cyanophenyl)pyrazolo[1,5-a]pyrimidine-3-carbonitrile], the Ki in experiment [1] is 2 nM; in experiment [3], 83 nM; in experiment [4], over 1000 nM. In addition, in the experiment with human PBMCs, the IC50 is 118 nM.

Regarding `N#Cc1c(-c2cccc(F)c2)nn2ccc(NCc3ccccc3)nc12` [Example 70, 5-(Benzylamino)-2-(3-fluorophenyl)pyrazolo[1,5-a]pyrimidine-3-carbonitrile], the Ki worked out at 2.2 nM in experiment [1], 181 nM in experiment [2] and 2 nM in experiment [3]. The IC50 in the experiment with human PBMCs amounted to 177 nM.

Turning to `N#Cc1cccc(-c2nn3ccc(N4CCN(CCF)CC4)nc3c2C#N)c1` [Example 87, 2-(3-Cyanophenyl)-5-[4-(2-fluoroethyl)piperazin-1-yl]pyrazolo[1,5-a]pyrimidine-3-carbonitrile], the Ki in experiment [1] was 23.6 nM; in experiment [3], 2280 nM; in experiment [4], over 1000 nM. The IC50 in the experiment on human PBMCs is 57 nM.

For `Cc1cc(-c2c(-c3cccc(C#N)c3)nn3ccc(C(=O)N[C@@H]4CN(C)C[C@H]4O)nc23)cc(C)n1` [Example 92.32], the inhibition constant (Ki) is 2.9 nM in experiment [1], 24 nM in experiment [2], 459 nM in experiment [3] and over 1000 nM in experiment [4].

Take `Cc1cc(-c2c(-c3cccc(C#N)c3)nn3ccc(C(=O)NC[C@@H]4CCC(=O)N4)nc23)cc(C)n1` [Example 92.33]: the Ki in experiment [1] is 13 nM; in experiment [2] it was 57 nM; in experiment [3] it was 652 nM; in experiment [4] it was over 1000 nM.

For `Cc1cc(-c2c(-c3cccc(C#N)c3)nn3ccc(NC(=O)[C@](C)(O)C(F)(F)F)nc23)cc(C)n1` [Example 94.3, (2S)—N-[2-(3-Cyanophenyl)-3-(2,6-dimethyl-4-pyridyl)pyrazolo[1,5-a]pyrimidin-5-yl]-3,3,3-trifluoro-2-hydroxy-2-methyl-propanamide], the Ki in experiment [1] was 2 nM; in experiment [2] it was 15 nM; in experiment [3], 184 nM; in experiment [4] it was over 1000 nM.

For `Cc1cc(-c2c(-c3cccc(C#N)c3)nn3ccc(NC(=O)C(C)(C)C)nc23)cc(Cl)n1` [Example 95, N-[3-(2-Chloro-6-methyl-4-pyridyl)-2-(3-cyanophenyl)pyrazolo[1,5-a]pyrimidin-5-yl]-2,2-dimethyl-propanamide], the Ki in experiment [1] was 2.7 nM; in experiment [2] it was 31 nM; in experiment [3], 146 nM; in experiment [4], over 1000 nM.

`C=C(C)[C@H](C)NC(=O)c1ccn2nc(-c3cccc(C#N)c3)c(-c3cc(C)nc(C)c3)c2n1` [Example 99, 2-(3-Cyanophenyl)-N-[(1S)-1,2-dimethylallyl]-3-(2,6-dimethyl-4-pyridyl)pyrazolo[1,5-a]pyrimidine-5-carboxamide]: the Ki in experiment [1] was 0.4 nM; in experiment [2], 35 nM; in experiment [3], 99 nM; in experiment [4], over 1000 nM.

Regarding `Cc1cc(-c2c(-c3cccc(C#N)c3)nn3ccc(C(=O)N[C@@H](C)C(C)(C)O)nc23)cc(CO)n1` [Example 100, 2-(3-Cyanophenyl)-N-[(1S)-2-hydroxy-1,2-dimethyl-propyl]-3-[2-(hydroxymethyl)-6-methyl-4-pyridyl]pyrazolo[1,5-a]pyrimidine-5-carboxamide], the Ki in experiment [1] was 0.4 nM; in experiment [2] it was 28 nM; in experiment [3] it was 64 nM; in experiment [4], over 1000 nM.

Turning to `Cc1cc(-c2c(-c3cccc(C#N)c3)nn3ccc(C(=O)NCC4(C)NC(=O)NC4=O)nc23)c(F)c(C)n1` (stereo not drawn) [Example 101, 2-(3-Cyanophenyl)-3-(3-fluoro-2,6-dimethyl-4-pyridyl)-N-[(4-methyl-2,5-dioxo-imidazolidin-4-yl)methyl]pyrazolo[1,5-a]pyrimidine-5-carboxamide], the Ki in experiment [1] is 5 nM; in experiment [2], 13 nM; in experiment [3], 1510 nM; in experiment [4], over 1000 nM.

As for `Cc1cc(-c2c(-c3cccc(C#N)c3)nn3ccc(C(=O)NCC(C)(C)O)nc23)c(F)c(C)n1` [Example 101.1, 2-(3-Cyanophenyl)-3-(3-fluoro-2,6-dimethyl-4-pyridyl)-N-(2-hydroxy-2-methyl-propyl)pyrazolo[1,5-a]pyrimidine-5-carboxamide], the Ki is 4.3 nM in experiment [1], 38 nM in experiment [2], 1240 nM in experiment [3] and over 1000 nM in experiment [4].

Regarding `Cc1cc(-c2c(-c3cccc(C#N)c3)nn3ccc(N4CCC5(CC4)CNC(=O)C5)nc23)cc(C)n1` [Example 105, 3-[3-(2,6-Dimethyl-4-pyridyl)-5-(3-oxo-2,8-diazaspiro[4.5]decan-8-yl)pyrazolo[1,5-a]pyrimidin-2-yl]benzonitrile], the Ki is 127 nM in experiment [1], 378 nM in experiment [2], 776 nM in experiment [3] and over 1000 nM in experiment [4].

As for `Cc1cc(-c2c(-c3cccc(C#N)c3)nn3ccc(NC4CCN(C)C(=O)C4)nc23)cc(C)n1` (stereo not drawn) [Example 105.2, 3-[3-(2,6-Dimethyl-4-pyridyl)-5-[(1-methyl-2-oxo-4-piperidyl)amino]pyrazolo[1,5-a]pyrimidin-2-yl]benzonitrile], the Ki in experiment [1] was 1.7 nM; in experiment [2], 18 nM; in experiment [3], 35 nM; in experiment [4], over 1000 nM.
